Reference: patent EP2842965A1, “Neuromedin U analogs comprising serum albumin binding amino acid residue” (Gubra ApS, priority 2013, dated 2015)
Starred links: 1 amine or outer side, 2 acyl side, 3 side chain; linkers in the order of their positions; H or OH if unused. Residues, ends and D or L forms follow the SMILES beside them. Groups on a side chain read outwards from the residue. *: point of attachment. γGlu = O=C(O)[C@H](CCC(=O)[*:2])N[*:1]; Palmitoyl = CCCCCCCCCCCCCCCC(=O)*

Target: T1, Neuromedin U receptor 1 (NMUR1) (Homo sapiens, UniProt Q9HB89)
T1 construct: expressed in transfected cells; host or cells: HEK293 cells, transient calcium phosphate transfection
T1 sequence (Q9HB89 1-426): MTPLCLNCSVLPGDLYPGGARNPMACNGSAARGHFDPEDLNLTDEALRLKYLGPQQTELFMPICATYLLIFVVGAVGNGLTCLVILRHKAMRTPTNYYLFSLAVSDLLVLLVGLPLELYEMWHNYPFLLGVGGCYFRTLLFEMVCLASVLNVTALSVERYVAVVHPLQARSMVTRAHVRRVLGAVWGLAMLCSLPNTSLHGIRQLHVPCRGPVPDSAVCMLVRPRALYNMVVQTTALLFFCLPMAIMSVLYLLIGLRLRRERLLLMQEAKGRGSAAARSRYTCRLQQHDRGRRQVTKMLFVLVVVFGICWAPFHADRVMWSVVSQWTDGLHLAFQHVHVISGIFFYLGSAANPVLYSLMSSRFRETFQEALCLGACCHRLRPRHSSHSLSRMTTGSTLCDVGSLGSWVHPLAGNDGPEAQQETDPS
Experiment: Functional assay (IP3 SPA-ysi assay) in HEK293 cells transfected with NMUR1
Format: cell-based
Conditions: HEK293 cells transiently transfected with NMUR1; head says cAMP, method describes IP3 SPA readout
Protocol: All compounds were dissolved in dimethyl sulfoxide (DMSO), and then water was added (total DMSO conc. was 80%). The stock concentration was 1 mM for all the compounds. Stocks were alliquoted and frozen -20°C.
The day before each assay a new standard row was prepared by dilution of the stock solution in assay buffer (1 mM acetic acid + 0.1% bovine serum albumin (BSA)). The following concentrations were prepared (depending on the ligand potency): 10^-5, 10^-6, 10^-7, 10^-7.5, 10^-8, 10^-8.5, 10^-9, 10^-10, 10^-11, 10^-12 M.
Cell cultures: The HEK293 cells are grown in (DMEM31966 glutamax supplemented with 10% FBS (fetal bovine serum) and 1% penicillin G and streptomycin) and incubated at 37°C with 10% CO2 in a humidified atmosphere. The cells were split as follows. HEK293 cells approximately 80% confluent was used. The cells were removed from the bottom of the bottle by removing the media (DMEM31966 glutamax supplemented with 10% FBS and 1% penicillin G and streptomycin), rinsed with 5 mL phosphate buffered saline (PBS) and shaken gently. […]
IP3 SPA-ysi assay: The media was removed and the plates were washed with 200 µL of Hank's balanced salt solution (HBSS) (Gibco, Life Technologies). […] The plates were sealed and shaken on high speed for 30 min, then centrifuged for 5 min at 1500 rpm and counted with 8 hours delay in the top counter. […]

SMILES: CCCCCCCCCCCCCCCC(=O)N[C@@H](CCC(=O)NCCCC[C@H](NC(=O)[C@H](CCC(=O)O)NC(=O)[C@H](CC(=O)O)NC(=O)[C@@H](NC(=O)[C@H](CCCNC(=N)N)NC(=O)[C@@H](N)Cc1ccccc1)C(C)C)C(=O)N[C@@H](Cc1ccccc1)C(=O)N[C@@H](CCC(N)=O)C(=O)N[C@@H](CO)C(=O)N1CCC[C@H]1C(=O)N[C@@H](Cc1ccccc1)C(=O)N[C@@H](C)C(=O)N[C@@H](CO)C(=O)N[C@@H](CCC(N)=O)C(=O)N[C@@H](CO)C(=O)N[C@@H](CCCNC(=N)N)C(=O)NCC(=O)N[C@@H](Cc1ccc(O)cc1)C(=O)N[C@@H](Cc1ccccc1)C(=O)N[C@@H](CC(C)C)C(=O)N[C@@H](Cc1ccccc1)C(=O)N[C@@H](CCCNC(=N)N)C(=O)N1CCC[C@H]1C(=O)N[C@@H](CCCNC(=N)N)C(=O)N[C@@H](CC(N)=O)C(N)=O)C(=O)O [SEQ ID NO 14] (H-FRVDEK([γGlu-Palmitoyl])FQSPFASQSRGYFLFRPRN-NH2)
- EC50: 51.4 nM
